One may read the IC50 as the concentration needed to halve the response being measured. A lower IC50 goes with inhibition by little substance. By melting point is commonly meant the temperature of the solid-liquid transition. As usually defined, the pIC50 is −log10 of the IC50, conventionally taken in molar units. Read a high pIC50 as a small IC50.

The values below come from US8354402B2, “Polyarylcarboxamides useful as lipid lowering agents” (Janssen Pharmaceutica N.V., priority 2000, dated 2013).

Data set [1] concerns ApoB secretion, HepG2 cells. Kind of data set: Quantification of the secretion of ApoB (HepG2 cells, immunoprecipitation, scintillation counting). The class given is cell-based. Particulars: 24 hours of incubation; for IC50: Homo sapiens, HepG2, 24 h. In outline: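 HepG2 cells in MEM Rega 3 with 10% FCS were treated at 70% confluency with compound (DMSO 0.4% final) for 24 h. Medium ApoB was immunoprecipitated with sheep anti-apoB then rabbit anti-sheep antibody (24 h each, 8° C), and pellet radioactivity was counted by liquid scintillation to give IC50.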

Data set [2] addresses MTP (Homo sapiens, UniProt P55157). Kind of data set: MTP assay (triglyceride transfer from donor to acceptor vesicles). The class given is biochemical. Particulars: MTP activity, 37° C. How it is done: MTP activity was measured using an assay similar to one described by J. R. Wetterau and D. B. Zilversmit in Chemistry and Physics of Lipids (1985) 38, 205-222. In order to prepare the donor and acceptor vesicles, the appropriate lipids in chloroform were put into a glass test tube and dried under a stream of nitrogen. A buffer containing 15 mM Tris-HCl (pH 7.5), 1 mM ethylenediamine tetra-acetic acid, 40 mM NaCl, 0.02% NaN3 (assay buffer) was added to the dried lipid. The mixture was vortexed briefly and the lipids were then allowed to hydrate for 20 minutes on ice. Vesicles were then prepared by bath sonication (using a Branson 2200 device) at room temperature for at most 15 minutes. Butylated hydroxytoluene was included in all vesicle preparations at a concentration of 0.1%. The lipid transfer assay mixture contained donor vesicles (40 nmole phosphatidylcholine, 7.5 mole % cardiolipin and 0.25 mole % glycerol tri[1-^14C]-oleate), acceptor vesicles (240 nmol phosphatidylcholine) and 5 mg bovine serum albumin in a total volume of 675 μl in a 1.5 ml microcentrifuge tube. Test compounds were added dissolved in dimethylsulfoxide (0.13% final concentration). After 5 minutes of pre-incubation at 37° C., the reaction was started by the addition of MTP in 100 μl of a dialysis buffer. The reaction was stopped by the addition of 400 μl […] (DEAE)-52 cellulose (Sephadex) pre-equilibrated in 15 mM Tris-HCl (pH 7.5), 1 mM ethylenediamine tetra-acetic acid and 0.02% NaN3 (1:1 volume/volume). The mixture was agitated for 4 minutes and centrifuged for 2 minutes at maximum speed in an Eppendorf centrifuge (4° C.) to pellet the DEAE-52-bound donor vesicles. An aliquot of the supernatant containing the acceptor liposomes was counted and the [^14C]-counts were used to calculate the percent triglyceride transfer from donor to acceptor vesicles.
Resulting IC50 values are enumerated in Table C.2 for some of the above-referred compounds.

MTP, sequence (P55157 19-894, species assumed): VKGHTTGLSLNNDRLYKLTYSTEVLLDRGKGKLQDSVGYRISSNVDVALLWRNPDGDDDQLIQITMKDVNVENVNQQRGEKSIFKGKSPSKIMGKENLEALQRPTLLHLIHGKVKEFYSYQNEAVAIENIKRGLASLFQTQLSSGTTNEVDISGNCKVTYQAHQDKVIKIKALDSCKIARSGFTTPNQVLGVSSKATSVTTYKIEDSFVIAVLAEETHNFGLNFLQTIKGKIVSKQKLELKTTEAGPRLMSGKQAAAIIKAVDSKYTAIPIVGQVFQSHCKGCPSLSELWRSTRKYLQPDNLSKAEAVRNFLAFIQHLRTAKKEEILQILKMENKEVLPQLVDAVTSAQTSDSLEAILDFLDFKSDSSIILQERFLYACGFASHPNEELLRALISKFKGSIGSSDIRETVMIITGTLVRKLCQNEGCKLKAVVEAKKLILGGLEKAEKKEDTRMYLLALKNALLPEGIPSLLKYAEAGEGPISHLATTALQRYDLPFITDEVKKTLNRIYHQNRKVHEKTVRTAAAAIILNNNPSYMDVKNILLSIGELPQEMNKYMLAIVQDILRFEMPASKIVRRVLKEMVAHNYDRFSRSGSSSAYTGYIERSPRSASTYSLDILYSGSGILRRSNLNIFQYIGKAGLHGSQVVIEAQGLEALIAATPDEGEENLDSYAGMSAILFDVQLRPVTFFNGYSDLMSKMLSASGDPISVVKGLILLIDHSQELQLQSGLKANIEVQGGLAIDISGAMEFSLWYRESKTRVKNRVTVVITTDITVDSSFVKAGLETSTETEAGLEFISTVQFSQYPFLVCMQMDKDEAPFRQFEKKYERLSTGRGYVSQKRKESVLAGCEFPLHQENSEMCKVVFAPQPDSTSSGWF
MTP, sequence (P07237 18-508 partner, species assumed): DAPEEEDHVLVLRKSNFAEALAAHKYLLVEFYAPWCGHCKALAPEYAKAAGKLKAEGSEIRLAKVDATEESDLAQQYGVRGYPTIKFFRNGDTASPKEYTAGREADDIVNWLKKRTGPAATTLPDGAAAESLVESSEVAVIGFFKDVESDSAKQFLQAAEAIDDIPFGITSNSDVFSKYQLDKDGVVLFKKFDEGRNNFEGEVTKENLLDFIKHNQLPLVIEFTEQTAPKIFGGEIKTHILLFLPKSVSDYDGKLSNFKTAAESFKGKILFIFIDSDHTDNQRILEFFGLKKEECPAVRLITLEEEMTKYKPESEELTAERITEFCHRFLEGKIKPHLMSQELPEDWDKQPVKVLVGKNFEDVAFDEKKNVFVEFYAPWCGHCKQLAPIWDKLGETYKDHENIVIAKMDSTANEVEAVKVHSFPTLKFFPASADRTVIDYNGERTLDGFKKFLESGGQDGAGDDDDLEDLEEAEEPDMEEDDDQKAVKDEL

Regarding `CCCOC(=O)C(c1ccccc1)N1CCN(c2ccc(NC(=O)c3ccccc3-c3ccc(C(F)(F)F)cc3)cc2)CC1` (stereo not drawn) [Co. No. 62, propyl-phenyl-4-[4-[[[4′-(trifluoromethyl)[1,1′-biphenyl]-2-yl]carbonyl]amino]phenyl]-1-piperazineacetate], the melting point is 151 °C. This compound showed an IC50 in data set [1] of 64.6 nM. The compound also had an IC50 in data set [2] of 10.5 nM.
For `COC(=O)C(c1ccccc1)N1CCC(c2ccc(NC(=O)c3ccccc3-c3ccc(C(F)(F)F)cc3)cc2)CC1` (single isomer, unassigned) [Co. No. 229], the melting point stood at 158 °C. In data set [1], this compound gave a pIC50 of 7.409. For the same compound, it took 52.6 nM to reach half-maximal inhibition in data set [2] (IC50).
`CCNC(=O)C(c1ccccc1)N1CCN(c2ccc(NC(=O)c3ccccc3-c3ccc(C(F)(F)F)cc3)cc2)CC1` (stereo not drawn) [Co. No. 54, N-[4-[4-[2-(ethylamino)-2-oxo-1-phenylethyl]-1-piperazinyl]phenyl]-4′-(trifluoromethyl)-[1,1′-biphenyl]-2-carboxamide] came in with a melting point of 123 °C. This compound also gave an IC50 in data set [1] of 7.89 nM. In data set [2], this compound gave an IC50 of 5.38 nM.
